Experiments:
[1] = test system: MDA-MB-436 cells; test: CTG Protocol (MDA-MB-436 GI50), antiproliferative activity; format: cell-based, human; conditions: MDA-MB-436 cells (BRCA1 mutation), 7-day incubation, CellTiter-Glo
Experimental: CTG Protocol (MDA-MB-436 GI50)
Antiproliferative activity of USP1 inhibitors was determined using breast cancer cell line MDA-MB-436 that harbors BRCA1 mutation. MDA-MB-436 cells (ATCC, HTB-130) was seeded with a seeding density of 1000 cells per well and 95 μL DMEM medium (Gibco, 10566016) into 96-well cell plates (Corning, 3610), and incubated overnight at 37° C. and 5% CO2. Compounds were solubilized in DMSO (Solarbio, D8371) as 10 mM stock solution, and then series diluted (3 folds) with DMSO for 9-point dose-response testing. The resulted series dilutions were then jump-diluted 50-fold by cell culture medium to afford the 20×stock solutions (containing 2% DMSO). Treatment was initiated by adding 5 μL of 20×stock solution to the assay plate and incubated at 37° C. and 5% CO2. At the end of 7-day incubation, cell assay plates were removed from incubation and equilibrated to room temperature (20 min). Then 100 μL of CellTiter-Glo (Promega, G9243) reagent, prepared per manufacturer's protocol, was added to each well, and the resulted plates were centrifuged 1,000 rpm for 1 minute, incubated at room temperature in the dark for 20 minutes, sealed with Perkin Elmer sticky film, and the luminescence signal read by Envision (Perkin Elmer).
Data analysis • a) % Inhibition was calculated using following equation: […]
X: compound concentration; Y: % Inhibition
(§1) Certain compounds were tested in the assays.

[2] = test system: HCC1806 Ub-PCNA (USP1); test: USP1 Western Blot Protocol (HCC1806 Ub-PCNA); format: cell-based; conditions: HCC1806 cells, 4 hours
Text: USP1 Western Blot Protocol (HCC1806 Ub-PCNA)
USP1 is a deubiquitinase that catalyze the hydrolysis of iso-peptide bond between ubiquitin and the substrate proteins. Inhibition of USP1 activity results in accumulation of mono-ubiquitinated substrate such as Ub-PCNA. A cell assay was set up to determine the cellular potency of USP1 compounds by monitoring the accumulation of Ub-PCNA. The signal intensity was detected by a specific Ub-PCNA antibody through Western-blot analysis.
The assay was initiated by seeding HCC1806 cells (ATCC, CRL-2335) into 6-well plates (Corning, 3516), with a seeding density of 3×10^5 cells per well and 2 mL RPMI 1640 culture medium (Gibco, 11875119). The plates were incubated overnight at 37° C. and 5% CO2. Compounds, solubilized in DMSO (Solarbio, D8371) as 1 mM stock solution, were diluted in 4-fold steps for 5-cencentration point dose response plus a no-compound DMSO control. Diluted compounds (2 μL) were transferred into assay wells (with a final DMSO concentration of −0.1%) and the resulted assay plates incubated at 37° C. and 5% CO2 for 4 hours. After aspiration of culture medium, 100 μL of 4° C. RIPA lysis buffer (Boston BioProducts, BP-115D) supplemented with vendor recommended concentrations of protease (Roche, 4693116001) and phosphatase (Roche, 4906837001) inhibitor, was added to each well and incubated for 10 minutes on the ice. Cells were scrapped loose from the bottom of well with a scraper (Corning, 3008), transferred into a 600 μL EP tube, sonicated using Ultrasound (Qsonica, Q800R3, with 30% energy, 5-second pulse on/off cycles at 4° C., for total 2 minutes), centrifuged 13,000 rpm for 15 minutes at 4° C., and then the supernatant transferred to a new 600 μL EP tube. The total protein concentration was determined using BCA kit following vendor recommended protocol (Solarbio, PC0020-500). Loading samples were prepared by diluting the total protein concentration to 1.5 μg/μL with 5 X NuPAGE SDS loading buffer (Beyotime, P0015L) and RIPA lysis buffer, and boiling at 100° C. for 5 minutes.
15 μg protein from each sample was loaded onto NuPAGE® Novex 4-12% Bis-Tris Midi Gel, 26 W (Invitrogen, WG1403BOX) and electrophoresis was run at 80 V for 30 minutes and 120 V till the end using 1x NuPAGE® MOPS SDS Running Buffer (Novex, NP0001). The gel was then transferred to nitrocellulose membrane using the dry transfer system (iBlot 2 Transfer Stacks, nitrocellulose, D323001) with a program consisting of 20 V for 1 minute, 23 V for 4 minutes and 25 V for 2 minutes. After the membrane was blocked with 5% BSA (Solarbio, A8020) in 1X TBST (CST, 9997S) for 1 hour at room temperature, specific antibodies (Ubiquityl-PCNA antibody (CST, 13439) at 1:500 dilution, PCNA antibody (Santa Cruz, sc-56) at 1:1000 dilution, and GAPDH (CST, 5174) at 1:2000 dilution in 1 X TBST containing 1% BSA) were added and incubated at room temperature for 1.5 hours. After washing the Nitrocellulose membranes with 1 X TBST for 3 times, 10 minutes each time at room temperature, fluorescently labeled secondary antibodies (anti-rabbit IgG, Licor, 926-32211; anti-mouse IgG, LI-COR, 926-68070) at 1:5000 dilution in 1 X TBST containing 1% BSA were added and incubated for 1 hour at room temperature in the dark. The membranes were then rinsed with 1 X TBST and immersed in the RO water. Imaging of band intensity was acquired with Li—COR imaging system (Li—COR, Odyssey clx ES).
Percentage of USP1 inhibition (% Vehicle) was calculated by using following equation examining Ub-PCNA upregulation:
And IC50 was calculated using four-parameter logistic fitting program • Y=Bottom+(Top-Bottom)/(1+10 {circumflex over (()}(LogIC50−X)*Hill Slope)) • X=Log of dose or concentration
as §1

SMILES	GI50 ([1]; Homo sapiens, 168 h) [nM]	IC50 ([2]; Homo sapiens) [nM]	GI50 [1] [nM]	IC50 [2] [nM]
COc1ncnc(C2CC2)c1-c1ncc2cc(-c3cnnn3C)c(=O)n(Cc3ccc(-c4nc(C(F)(F)F)cn4C4CC4)cc3)c2n1 [Compound I-159, 8-({4-[1-cyclopropyl-4-(trifluoromethyl)imidazol-2-yl]phenyl}methyl)-2-(4-cyclopropyl-6-methoxypyrimidin-5-yl)-6-(3-methyl-1,2,3-triazol-4-yl)pyrido[2,3-d]pyrimidin-7-one]	10 to 100	< 10	–	–
COc1ncnc(C2CC2)c1-c1ncc2cc(-c3cncc(F)c3)c(=O)n(Cc3ccc(-c4nc(C(F)(F)F)cn4C4CC4)cc3)c2n1 [Compound I-162]	10 to 100	< 10	–	–
COc1ncnc(C2CC2)c1-c1ncc2ccc(=O)n(Cc3ccc(-c4nc(C(F)(F)F)cn4C)c(F)c3)c2n1 [Compound 72, 2-(4-Cyclopropyl-6-Methoxypyrimidin-5-Yl)-8-({3-Fluoro-4-[1-Methyl-4-(Trifluoromethyl)Imidazol-2-Yl]Phenyl}Methyl)Pyrido[2,3-d]Pyrimidin-7-One]	< 10	10 to 100	–	–
COc1ncnc(C2CC2)c1-c1ncc2cc(-c3c(C)cnn3C)c(=O)n(Cc3ccc(-c4nc(C(F)(F)F)cn4C(C)C)cc3)c2n1 [Compound I-165, 2-(4-Cyclopropyl-6-Methoxypyrimidin-5-Yl)-6-(2,4-Dimethylpyrazol-3-Yl)-8-({4-[1-Isopropyl-4-(Trifluoromethyl)Imidazol-2-Yl]Phenyl}Methyl)Pyrido[2,3-d]Pyrimidin-7-One]	10 to 100	10 to 100	–	–
[2H]C([2H])([2H])Oc1ncnc(C2CC2)c1-c1ncc2ccc(=O)n(C([2H])([2H])c3ccc(-c4nc(C(F)(F)F)cn4C([2H])([2H])[2H])cc3)c2n1 [Compound 57, 2-[4-cyclopropyl-6-(2H3)methoxypyrimidin-5-yl]-8-({4-[1-(2H3)methyl-4-(trifluoromethyl)imidazol-2-yl]phenyl}(2H2)methyl)pyrido[2,3-d]pyrimidin-7-one]	< 10	< 10	–	–
COc1nn(C)cc1-c1cc2cnc(-c3c(OC)ncnc3C3CC3)nc2n(Cc2ccc(-c3nc(C(F)(F)F)cn3C3CC3)cc2)c1=O [Compound I-164]	10 to 100	10 to 100	–	–
COc1ncnc(C2CC2)c1-c1ncc2ccc(=O)n(Cc3ccc(-c4nc(C(F)(F)F)c[nH]4)cc3)c2n1 [Compound 58, 2-(4-Cyclopropyl-6-Methoxypyrimidin-5-Yl)-8-({4-[4-(Trifluoromethyl)-1H-Imidazol-2-Yl]Phenyl}Methyl)Pyrido[2,3-d]Pyrimidin-7-One]	10 to 100	–	–	–
COc1ncnc(C2CC2)c1-c1ncc2cc(-c3cn(C)cn3)c(=O)n(Cc3ccc(-c4nc(C(F)(F)F)cn4C4CC4)cc3)c2n1 [Compound I-161, 8-({4-[1-cyclopropyl-4-(trifluoromethyl)imidazo]-2-yl]phenylmethyl)-2-(4-cyclopropyl-6-methoxypyrimidin-5-yl)-6-(1-methylimidazol-4-yl)pyrido[2,3-d]pyrimidin-7-one]	10 to 100	< 10	–	–
COc1ncnc(C2CC2)c1-c1ncc2ccc(=O)n(Cc3ccc(-c4ncc(F)cc4OC(C)C)cc3)c2n1 [Compound 67, 2-(4-cyclopropyl-6-methoxypyrimidin-5-yl)-8-{[4-(5-fluoro-3-isopropoxypyridin-2-yl)phenyl]methyl}pyrido[2,3-d]pyrimidin-7-one]	10 to 100	10 to 100	–	–
COc1ncnc(C2CC2)c1-c1ncc2ccc(=O)n(Cc3ccc(-c4nc(C(F)(F)F)ccc4OC(C)C)cc3)c2n1 [Compound 75, 2-(4-Cyclopropyl-6-Methoxypyrimidin-5-Yl)-8-({4-[3-Isopropoxy-6-(Trifluoromethyl)Pyridin-2-Yl]Phenyl}Methyl)Pyrido[2,3-d]Pyrimidin-7-One]	10 to 100	10 to 100	–	–
COc1ncnc(C2CC2)c1-c1ncc2ccc(=O)n(Cc3ccc(-c4nc(C(F)(F)F)cn4C)cn3)c2n1 [Compound 88, 2-(4-Cyclopropyl-6-Methoxypyrimidin-5-Yl)-8-({5-[1-Methyl-4-(Trifluoromethyl)Imidazol-2-Yl]Pyridin-2-Yl}Methyl)Pyrido[2,3-d]Pyrimidin-7-One]	> 1000	10 to 100	–	–
CCc1ncnc(C2CC2)c1-c1ncc2ccc(=O)n(Cc3ccc(-c4nc(C(F)(F)F)cn4C)cc3)c2n1 [Compound 52, 2-(4-Cyclopropyl-6-Ethylpyrimidin-5-Yl)-8-({4-[1-Methyl-4-(Trifluoromethyl)Imidazol-2-Yl]Phenyl}Methyl)Pyrido[2,3-d]Pyrimidin-7-One]	100 to 1000	100 to 1000	–	–
COc1ncnc(C2CC2)c1-c1ncc2cc(-c3nnc(C)o3)c(=O)n(Cc3ccc(-c4nc(C(F)(F)F)cn4C4CC4)cc3)c2n1 [Compound I-154]	10 to 100	10 to 100	–	–
COc1ncnc(C2CC2)c1-c1ncc2ncc(=O)n(Cc3ccc(-c4nc(C(F)(F)F)cn4C(C)C)cc3)c2n1 [Compound I-29]	< 10	< 10	–	–
COc1ncnc(C2CC2)c1-c1ncc2ccc(=O)n(C(C)c3ccc(-c4nc(C(F)(F)F)cn4C)cc3)c2n1 (stereo not shown) [Compound 62]	–	–	10 to 100	10 to 100
COc1ncnc(C2CC2)c1-c1ncc2ccc(=O)n(C(C)c3ccc(-c4nc(C(F)(F)F)cn4C)cc3)c2n1 (stereo not shown) [Compound 63]	–	–	10 to 100	10 to 100
COc1ncnc(C2CC2)c1-c1ncc2cc(-c3cnn(C)c3)c(=O)n(Cc3ccc(-c4nc(C(F)(F)F)cn4C)cc3)c2n1 [Compound 64]	10 to 100	10 to 100	–	–
COc1ncnc(C2CC2)c1-c1ncc2cc(Cl)c(=O)n(Cc3ccc(-c4nc(C(F)(F)F)cn4C)cc3)c2n1 [Compound 79, 6-Chloro-2-(4-Cyclopropyl-6-Methoxypyrimidin-5-Yl)-8-({4-[1-Methyl-4-(Trifluoromethyl)Imidazol-2-Yl]Phenyl}Methyl)Pyrido[2,3-d]Pyrimidin-7-One]	10 to 100	10 to 100	–	–
COc1ncnc(C2CC2)c1-c1ncc2cc(-c3nccn3C)c(=O)n(Cc3ccc(-c4nc(C(F)(F)F)cn4C4CC4)cc3)c2n1 [Compound I-158]	10 to 100	10 to 100	–	–

Reference: patent publication US20240092779A1, “USP1 INHIBITORS AND USES THEREOF” (Zentaur Therapeutics USA Inc., priority 2022, published 2024)
